# Square brackets hold non-standard residues; d marks the D form. Peptide text beside a SMILES is read from it. * marks the point of attachment. Benzoyl(4-OMe) = COc1ccc(C(=O)*)cc1; d2Thi = N[C@H](Cc1cccs1)C(=O)O
# T1: MC receptors endogenous to Xenopus melanophores (Xenopus laevis, UniProt A0A1L8GF34)
# T1 sequence (A0A1L8GF34 1-317): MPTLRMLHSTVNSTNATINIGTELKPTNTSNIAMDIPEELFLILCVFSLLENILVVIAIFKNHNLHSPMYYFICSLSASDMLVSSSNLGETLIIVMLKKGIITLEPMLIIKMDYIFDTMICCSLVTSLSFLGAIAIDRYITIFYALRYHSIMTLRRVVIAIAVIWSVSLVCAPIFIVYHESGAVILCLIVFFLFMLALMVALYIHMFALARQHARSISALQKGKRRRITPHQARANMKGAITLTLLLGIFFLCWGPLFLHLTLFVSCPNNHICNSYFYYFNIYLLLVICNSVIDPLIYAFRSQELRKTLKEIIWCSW
# B1: ASP: agouti-signaling protein, MCR antagonist elaborated by hair follicle melanocytes (protein, UniProt P42127 23-132, looked up)
# Agouti-signaling protein: HLPPEEKLRDDRSLRSNSSVNLLDVPSVSIVALNKKSKQIGRKAAEKKRSSKKEASMKKVVRPRTPLSAPCVATRNSCKPPAPACCDPCASCQCRFFRSACSCRVLSLNC
# Tests used:
# [1] = target: T2, ACTH (MCR-2) receptor endogenous to murine Y1 adrenocortical cells (Mus musculus, UniProt Q64326); assay: cAMP concentration-response to ACTH-(1-24) in Y1 cells; type: cell-based
# T2 construct: the ACTH (MCR-2) receptor endogenous to murine Y1 adrenocortical cells; endogenous in cells; host or cells: murine Y1 adrenocortical cells
# T2 sequence (Q64326 whole entry): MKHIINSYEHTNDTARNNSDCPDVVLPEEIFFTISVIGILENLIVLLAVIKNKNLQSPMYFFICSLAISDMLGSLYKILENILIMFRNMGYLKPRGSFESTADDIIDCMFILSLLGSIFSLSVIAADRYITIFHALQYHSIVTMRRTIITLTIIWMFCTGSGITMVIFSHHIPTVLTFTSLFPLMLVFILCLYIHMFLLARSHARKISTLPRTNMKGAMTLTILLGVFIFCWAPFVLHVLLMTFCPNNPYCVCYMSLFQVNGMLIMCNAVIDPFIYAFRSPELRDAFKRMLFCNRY
# T2 sequence (Q9D159 whole entry partner): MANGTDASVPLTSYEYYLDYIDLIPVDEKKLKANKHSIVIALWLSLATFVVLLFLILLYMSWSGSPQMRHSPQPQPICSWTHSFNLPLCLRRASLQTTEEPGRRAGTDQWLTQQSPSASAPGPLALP
# Description: (§1) Peptide concentration-response measurements are made in HEK-293 cells by quantifying cAMP levels using a [8-^3H]-CAMP kit from Amersham. Briefly, cells transfected with MC receptors, plated to confluency in 96-well tissue culture plates, are rinsed for 1 hr with 70% (vol/vol) L-15 medium containing 0.5% bovine serum albumin. […] Cellular debris was separated from extracted samples by centrifugation, 400 μL aliquots of the supernatant lyophilized, and total cAMP content quantified by isotope counting.
# (§2) Concentration response measurements were made also as described in Example 2, but in Xenopus fibroblasts, COS-7, HEK-293, and Y1 cells.
# [2] = tested on: atypical MC receptor in Cos-7 cells; assay: cAMP concentration-response to α-MSH in Cos-7 cells; type: cell-based
# Description: as §1, §2
# [3] = tested on: heat-induced edema in the anesthetized rat's paw; assay: Suppression of heat-induced edema in the anesthetized rat's paw (anti-inflammatory); type: in vivo
# [4] = target: T1, MC receptors endogenous to Xenopus melanophores; conditions: Quillan and Sadée 1997, cited from earlier work
# MCR-1 = MCR-1 (Homo sapiens, UniProt Q01726); conditions: at concentrations up to 100 nM; Ollmann et al.; cited from earlier work
# MCR-1, sequence (Q01726 whole entry): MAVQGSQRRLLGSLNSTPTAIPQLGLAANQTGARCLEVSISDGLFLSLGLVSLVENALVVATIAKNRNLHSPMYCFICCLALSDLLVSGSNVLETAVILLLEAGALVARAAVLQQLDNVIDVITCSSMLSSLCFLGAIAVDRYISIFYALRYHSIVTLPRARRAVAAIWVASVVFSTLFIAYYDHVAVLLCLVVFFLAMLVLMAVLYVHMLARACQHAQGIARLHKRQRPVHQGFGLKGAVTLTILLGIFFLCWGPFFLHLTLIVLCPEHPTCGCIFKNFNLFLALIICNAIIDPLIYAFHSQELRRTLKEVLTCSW
# MCR-3 = MCR-3 (Homo sapiens, UniProt P41968); conditions: Ollmann et al.; cited from earlier work
# MCR-3, sequence (P41968 whole entry): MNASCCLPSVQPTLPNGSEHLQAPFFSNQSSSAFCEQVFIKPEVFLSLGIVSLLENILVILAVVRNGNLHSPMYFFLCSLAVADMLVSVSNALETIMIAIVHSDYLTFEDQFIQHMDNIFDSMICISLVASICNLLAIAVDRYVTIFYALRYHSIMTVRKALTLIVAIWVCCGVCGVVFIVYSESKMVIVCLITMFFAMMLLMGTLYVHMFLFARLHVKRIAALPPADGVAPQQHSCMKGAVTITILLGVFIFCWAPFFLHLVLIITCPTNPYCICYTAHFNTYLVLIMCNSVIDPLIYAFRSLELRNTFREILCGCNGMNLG
# MCR-4 = MCR-4 (Homo sapiens, UniProt P32245); conditions: Ollmann et al.; cited from earlier work
# MCR-4, sequence (P32245 whole entry): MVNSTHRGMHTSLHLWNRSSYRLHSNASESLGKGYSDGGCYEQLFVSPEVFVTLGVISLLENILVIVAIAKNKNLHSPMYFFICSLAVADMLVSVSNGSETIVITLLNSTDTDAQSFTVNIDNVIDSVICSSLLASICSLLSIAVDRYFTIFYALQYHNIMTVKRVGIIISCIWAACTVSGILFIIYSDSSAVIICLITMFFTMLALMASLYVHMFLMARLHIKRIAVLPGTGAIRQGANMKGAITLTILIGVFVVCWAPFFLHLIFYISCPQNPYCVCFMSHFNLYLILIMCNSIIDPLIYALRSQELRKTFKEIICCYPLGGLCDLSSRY
# [5] = tested on: B16-F1 mouse melanoma cells; conditions: Siegrist et al.; read-out: antiproliferative half-maximal effective concentration; cited from earlier work
molecule,measurement,setting,value
CC[C@H](C)[C@H](NC(=O)[C@H](CCCNC(=N)N)NC(=O)[C@H](CCCNC(=N)N)NC(=O)[C@H](CC(C)C)NC(=O)[C@H](Cc1ccccc1)NC(=O)CNC(=O)CNC(=O)[C@@H](N)Cc1ccc(O)cc1)C(=O)N[C@@H](CCCNC(=N)N)C(=O)N1CCC[C@H]1C(=O)N[C@@H](CCCCN)C(=O)N[C@@H](CC(C)C)C(=O)N[C@@H](CCCCN)C(N)=O [dynorphin A(1-13)-NH2],effect on basal or forskolin (3 μM) stimulated cAMP production,[1]; Y1 cells,did not significantly affect
same,shift of the concentration-response curve of ACTH-(1-24) to the right,"[1]; Y1 cells, 30 μM",~200 fold
same,estimated Kd,[1]; from shift in the ACTH concentration-response curve,submicromolar range
same,shift of α-MSH EC50,[2]; 30 μM,~50 fold
same,Kd,[2]; read-out: K4,~1000 nM
"CC[C@H](C)[C@H](NC(=O)[C@@H](Cc1cccs1)NC(=O)[C@H](CC(C)C)NC(=O)[C@H](CC(C)C)NC(=O)[C@H](CCCCN)NC(=O)[C@H](CCCNC(=N)N)NC(=O)c1ccc(OC)cc1)C(=O)N[C@H](CC(C)C)C(N)=O [mystixin-7, p-anisoyl-Arg-Lys-Leu-Leu-D-Thi-Ile-D-Leu-NH2] ({Benzoyl(4-OMe)}-RKLL[d2Thi]I[dL]-NH2)",Anti-Inflammatory ED50,"[3]; i.v., suppression of heat-induced edema in the anesthetized rat's paw",0.02 (0.014-0.059) mg/kg
Dynorphin A(2-17) [reference compound],anti-edema activity,[3]; in words,at least twice more active
same,IC50,[4]; against 600 pM α-MSH,190 nM
Dynorphin A(6-17),antagonist activity,[4],inactive
"agouti-related protein (ARP): agouti-related protein cloned from non-epidermal tissues (SSRRCVRLHESCLGQQVPCCDPCATCYCRFFNAFCYCRKLGTAMNPCSRT; UniProt O00253 83-132, looked up)",effect on MCR-1,MCR-1,little effect
same,inhibition for MCR-3,MCR-3,dose dependent inhibition
same,inhibition for MCR-4,MCR-4,dose dependent inhibition
α-MSH,stimulating cAMP accumulation in Y1 cells,[1]; up to concentrations of 10 μM,not effective
same,EC50,[2]; read-out: EC50 of α-MSH for cAMP production,~80 nM
B1,EC50,[5],13 nM

# Reference: patent publication US6953779B2, “Melanocortin receptor antagonists and modulations of melanocortin receptor activity” (The Regents of the University of California, priority 1998, dated 2005)
